Assay results: patent US20260258064A1 (SIRONAX LTD., priority 2023, published 2026)
pIC50: −log10 of the molar value.

These compounds were tested against T1, SARM1 (50-724) (Homo sapiens, UniProt Q6SZW1) (assay: SARM1 (50-724) enzymatic assay (LC-MS/MS)). Settings: Purified SARM1 (50-724) 2 nM, NMN as activator, NAD+ as substrate, 1 h at room temperature, read-out: IC50 (SARM1 inhibitory activity).
T1 construct: Purified SARM1 (50-724) with a final concentration of 2 nM was pre-incubated with a test compound
T1 sequence (Q6SZW1 50-724): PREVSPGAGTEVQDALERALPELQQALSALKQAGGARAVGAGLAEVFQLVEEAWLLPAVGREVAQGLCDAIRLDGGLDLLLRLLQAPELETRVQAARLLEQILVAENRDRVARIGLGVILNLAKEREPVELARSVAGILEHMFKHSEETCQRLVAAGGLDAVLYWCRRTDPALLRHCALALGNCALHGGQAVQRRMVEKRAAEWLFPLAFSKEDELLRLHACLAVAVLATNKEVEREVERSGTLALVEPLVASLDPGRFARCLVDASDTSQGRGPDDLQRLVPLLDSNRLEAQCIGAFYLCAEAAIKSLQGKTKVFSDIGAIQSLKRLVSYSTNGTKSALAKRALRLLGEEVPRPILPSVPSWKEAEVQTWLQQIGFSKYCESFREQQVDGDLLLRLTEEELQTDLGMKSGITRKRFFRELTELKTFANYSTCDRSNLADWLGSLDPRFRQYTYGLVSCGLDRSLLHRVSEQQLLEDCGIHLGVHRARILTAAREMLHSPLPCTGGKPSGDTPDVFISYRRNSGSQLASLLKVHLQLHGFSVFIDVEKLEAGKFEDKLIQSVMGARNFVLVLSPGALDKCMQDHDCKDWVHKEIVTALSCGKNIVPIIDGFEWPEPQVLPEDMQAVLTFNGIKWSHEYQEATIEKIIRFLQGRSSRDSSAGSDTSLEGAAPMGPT
Type: biochemical
Procedure, shortened: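 Reaction buffer was Dulbecco's PBS. Compound and 2 nM human SARM1 (50-724) were pre-incubated 15 min at room temperature, then […] NAD^+ and 200 µM NMN activator were added for 1 h at room temperature. Acetonitrile (70%) stop, LC-MS/MS read-out, IC50 values.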

Row | Compound | pIC50
1 | FC(F)(F)c1ccc2[nH]c(-c3nncn3-c3c(C(F)(F)F)ccn4nccc34)nc2c1 [Compound 309, 5-(trifluoromethyl)-2-(4-(5-(trifluoromethyl)pyrazolo[1,5-a]pyridin-4-yl)-4H-1,2,4-triazol-3-yl)-1H-benzo[d]imidazole] | ≥ 7.00
2 | FC(F)(F)c1ccc2[nH]c(-c3ncncc3-c3cccc(Cl)c3Cl)nc2c1 [Compound 310, 2-(5-(2,3-dichlorophenyl)pyrimidin-4-yl)-5-(trifluoromethyl)-1H-benzo[d]imidazole] | < 6.00
3 | FC(F)(F)c1ccc2[nH]c(-c3nncn3-c3cn4nccc4cc3C(F)(F)F)nc2c1 [Compound 311, 5-(trifluoromethyl)-2-(4-(5-(trifluoromethyl)pyrazolo[1,5-a]pyridin-6-yl)-4H-1,2,4-triazol-3-yl)-1H-benzo[d]imidazole] | 6.30 to 7.00
4 | FC(F)(F)c1ccc2[nH]c(-c3cccn3-c3nccnc3C(F)(F)F)nc2c1 [Compound 313] | 6.00 to 6.30
5 | Fc1c(C2CC(F)(F)C2)ccc2[nH]c(-c3nncn3-c3cnccc3C(F)(F)F)nc12 [Compound 314, 5-(3,3-difluorocyclobutyl)-4-fluoro-2-(4-(4-(trifluoromethyl)pyridin-3-yl)-4H-1,2,4-triazol-3-yl)-1H-benzo[d]imidazole] | ≥ 7.00
6 | FC(F)(F)c1ccc2[nH]c(-n3nncc3-c3cccc(Cl)c3Cl)nc2c1 [Compound 315, 2-(5-(2,3-dichlorophenyl)-1H-1,2,3-triazol-1-yl)-5-(trifluoromethyl)-1H-benzo[d]imidazole] | ≥ 7.00
7 | C=C(F)Cc1cc(F)c2[nH]c(-c3nncn3-c3cnccc3C(F)(F)F)nc2c1 [Compound 316, 7-fluoro-5-(2-fluoroallyl)-2-(4-(4-(trifluoromethyl)pyridin-3-yl)-4H-1,2,4-triazol-3-yl)-1H-benzo[d]imidazole] | ≥ 7.00
8 | Fc1cc(C(F)(F)F)cc2nc(-c3nnc(CC(F)F)n3-c3cnccc3C(F)(F)F)[nH]c12 [Compound 317, 2-(5-(2,2-difluoroethyl)-4-(4-(trifluoromethyl)pyridin-3-yl)-4H-1,2,4-triazol-3-yl)-7-fluoro-5-(trifluoromethyl)-1H-benzo[d]imidazole] | ≥ 7.00
9 | CN(CC(F)F)c1cc(F)c2[nH]c(-c3nncn3-c3cnccc3C(F)(F)F)nc2c1 [Compound 318, N-(2,2-difluoroethyl)-7-fluoro-N-methyl-2-(4-(4-(trifluoromethyl)pyridin-3-yl)-4H-1,2,4-triazol-3-yl)-1H-benzo[d]imidazol-5-amine] | ≥ 7.00
10 | FC(F)(F)c1ccc2[nH]c(N3CCSCC3c3ccccc3)nc2c1 (stereo not shown) [Compound 319, 3-phenyl-4-(5-(trifluoromethyl)-1H-benzo[d]imidazol-2-yl)thiomorpholine] | < 6.00
11 | N#CC1CC1c1ccc2[nH]c(-c3nncn3-c3cnccc3C(F)(F)F)nc2c1F (stereo not shown) [Compound 320, 2-(4-fluoro-2-(4-(4-(trifluoromethyl)pyridin-3-yl)-4H-1,2,4-triazol-3-yl)-1H-benzo[d]imidazol-5-yl)cyclopropane-1-carbonitrile] | ≥ 7.00
12 | NC(=O)C1CC1c1ccc2[nH]c(-c3nncn3-c3cnccc3C(F)(F)F)nc2c1F (stereo not shown) [Compound 321, 2-(4-fluoro-2-(4-(4-(trifluoromethyl)pyridin-3-yl)-4H-1,2,4-triazol-3-yl)-1H-benzo[d]imidazol-5-yl)cyclopropane-1-carboxamide] | ≥ 7.00
13 | FC(F)(F)c1ccc2[nH]c(-c3nocc3-c3cccc(Cl)c3Cl)nc2c1 [Compound 322, 4-(2,3-dichlorophenyl)-3-(5-(trifluoromethyl)-1H-benzo[d]imidazol-2-yl)isoxazole] | 6.30 to 7.00
14 | CC(C)(O)c1ccc2[nH]c(-c3nnccc3-c3cnccc3C(F)(F)F)nc2c1 [Compound 323] | ≥ 7.00
15 | NC1CC1c1ccc2[nH]c(-c3nncn3-c3cnccc3C(F)(F)F)nc2c1F (stereo not shown) [Compound 324, 2-(4-fluoro-2-(4-(4-(trifluoromethyl)pyridin-3-yl)-4H-1,2,4-triazol-3-yl)-1H-benzo[d]imidazol-5-yl)cyclopropan-1-amine] | 6.30 to 7.00
16 | [O-][S+]1CCN(c2ccccc2)C(c2nc3cc(C(F)(F)F)ccc3[nH]2)C1 (stereo not shown) [Compound 325, 4-phenyl-3-(5-(trifluoromethyl)-1H-benzo[d]imidazole-2-yl)thiomorpholine 1-oxide] | < 6.00

Row | Compound | pIC50
17 | Fc1cc(N2CCC(F)(F)C2)cc2nc(-c3nncn3-c3cnccc3C(F)(F)F)[nH]c12 [Compound 326, 5-(3,3-difluoropyrrolidin-1-yl)-7-fluoro-2-(4-(4-(trifluoromethyl)pyridin-3-yl)-4H-1,2,4-triazol-3-yl)-1H-benzo[d]imidazole] | 6.30 to 7.00
18 | Oc1cc(F)c2[nH]c(-c3nncn3-c3cnccc3C(F)(F)F)nc2c1 [Compound 327, 7-fluoro-2-(4-(4-(trifluoromethyl)pyridin-3-yl)-4H-1,2,4-triazol-3-yl)-1H-benzo[d]imidazol-5-ol] | ≥ 7.00
19 | COc1cc(F)c2[nH]c(-c3nncn3-c3cnccc3C(F)(F)F)nc2c1 [Compound 328, 7-fluoro-5-methoxy-2-(4-(4-(trifluoromethyl)pyridin-3-yl)-4H-1,2,4-triazol-3-yl)-1H-benzo[d]imidazole] | ≥ 7.00
20 | Fc1c(CC(F)F)cc(F)c2[nH]c(-c3nncn3-c3cnccc3C(F)(F)F)nc12 [Compound 329, 5-(2,2-difluoroethyl)-4,7-difluoro-2-[4-[4-(trifluoromethyl)-3-pyridyl]-1,2,4-triazol-3-yl]-1H-benzimidazole] | ≥ 7.00
21 | CC1CC1c1cc(F)c2[nH]c(-c3nncn3-c3cnccc3C(F)(F)F)nc2c1 (stereo not shown) [Compound 330, 7-fluoro-5-(2-methylcyclopropyl)-2-(4-(4-(trifluoromethyl)pyridin-3-yl)-4H-1,2,4-triazol-3-yl)-1H-benzo[d]imidazole] | ≥ 7.00
22 | Fc1cc(OCC(F)F)cc2nc(-c3nncn3-c3cnccc3C(F)(F)F)[nH]c12 [Compound 331, 5-(2,2-difluoroethoxy)-7-fluoro-2-(4-(4-(trifluoromethyl)pyridin-3-yl)-4H-1,2,4-triazol-3-yl)-1H-benzo[d]imidazole] | ≥ 7.00
23 | Fc1cc2[nH]c(-c3nncn3-c3cnccc3C(F)(F)F)nc2c(F)c1C1CC1 [Compound 332, 5-cyclopropyl-4,6-difluoro-2-(4-(4-(trifluoromethyl)pyridin-3-yl)-4H-1,2,4-triazol-3-yl)-1H-benzo[d]imidazole] | ≥ 7.00
24 | FC(F)(F)c1ccncc1-n1cnnc1-c1nc2c(C3CC3)c(Cl)ccc2[nH]1 [Compound 333, 6-chloro-7-cyclopropyl-2-(4-(4-(trifluoromethyl)pyridin-3-yl)-4H-1,2,4-triazol-3-yl)-1H-benzo[d]imidazole] | 6.00 to 6.30
25 | FC(F)(F)c1ccncc1-n1cnnc1-c1nc2c(-c3cccnc3)c(Cl)ccc2[nH]1 [Compound 334, 6-chloro-7-(pyridin-3-yl)-2-(4-(4-(trifluoromethyl)pyridin-3-yl)-4H-1,2,4-triazol-3-yl)-1H-benzo[d]imidazole] | < 6.00
26 | FC(F)(F)c1ccc2[nH]c(C3=C(c4ccccc4Cl)CSC3)nc2c1 [Compound 335, 2-(4-(2-chlorophenyl)-2,5-dihydrothiophen-3-yl)-5-(trifluoromethyl)-1H-benzo[d]imidazole] | 6.00 to 6.30
27 | Fc1cc(C(F)(F)F)cc2nc(-c3nncnc3-c3cnccc3C(F)(F)F)[nH]c12 [Compound 336, 7-fluoro-5-(trifluoromethyl)-2-(5-(4-(trifluoromethyl)pyridin-3-yl)-1,2,4-triazin-6-yl)-1H-benzo[d]imidazole] | ≥ 7.00
28 | O=S1(=O)CC(c2nc3cc(C(F)(F)F)ccc3[nH]2)=C(c2ccccc2Cl)C1 [Compound 337, 3-(2-chlorophenyl)-4-(5-(trifluoromethyl)-1H-benzo[d]imidazol-2-yl)-2,5-dihydrothiophene 1,1-dioxide] | < 6.00
29 | Fc1cc(C2CC23CC3)cc2nc(-c3nncn3-c3cnccc3C(F)(F)F)[nH]c12 (stereo not shown) [Compound 338, 7-fluoro-5-spiro[2.2]pentan-2-yl-2-[4-[4-(trifluoromethyl)-3-pyridyl]-1,2,4-triazol-3-yl]-1H-benzimidazole] | ≥ 7.00
30 | Fc1cc(C2CC2C(F)F)cc2nc(-c3nncn3-c3cnccc3C(F)(F)F)[nH]c12 (stereo not shown) [Compound 339, 5-(2-(difluoromethyl)cyclopropyl)-7-fluoro-2-(4-(4-(trifluoromethyl)pyridin-3-yl)-4H-1,2,4-triazol-3-yl)-1H-benzo[d]imidazole] | ≥ 7.00
31 | FC(F)(F)c1ccc2[nH]c(C3CSCC3c3ccccc3Cl)nc2c1 (stereo not shown) [Compound 340, 2-(4-(2-chlorophenyl)tetrahydrothiophen-3-yl)-5-(trifluoromethyl)-1H-benzo[d]imidazole] | 6.30 to 7.00
